Test system: P815 cells
Test: FACS analysis of hexa-histidine-tagged B7.1 and CD40 engrafted onto P815 cells via incorporated lipid
Assay type: cell-based, murine
Details: 0.1 mM lipid 30 min 37° C., then 6His B7.1 and CD40 each ~20 μg/ml, streptavidin-FITC
Protocol: FIG. 2 is the fluorescence profile, as measured by fluorescence-activated cell sorting, of p815 cells engrafted with biotinylated and hexa-histidine-tagged CD40 and B7.1 molecules and then stained with streptavidin-FITC.
Cultured P815 tumor cells were washed twice in PBS to remove proteins from the culture media and suspended to 1×10^7 cells/ml in PBS. The cells were then aliquoted into 96-well V-bottom Seroeluster plates (Costar, Corning, N.Y.) at […] and incubated with 125 μM NTA-DTDA (alone or as a mixture with other lipids as indicated) or 125 μM DMPC (control) in PBS containing 125 μM Zn^2+, for 40 min at 37° C. […] The relative level of NTA-DTDA incorporated was routinely assessed by FACS analysis (see below) after incubating the cells with biotinylated 6His peptide (B-6His) (0.2 μg/ml) for 30 min at 4° C., washing twice with PBS-0.1% v/v BSA, and then staining with streptavidin-FITC. The cells were incubated with streptavidin-FITC (33 μg/ml) in PBS containing 1% v/v BSA (PBS-1% v/v-BSA) for 30 min at 4° C., washed three times with PBS-1% v/v BSA, fixed with 2% v/v paraformaldehyde in PBS, and then analyzed for FITC-fluorescence by FACS. […]
The histograms in FIG. 2 show fluorescence-activated cell sorting (FACS) profiles of murine mastocytoma P815 cells carrying engrafted recombinant hexa-histidine-tagged murine B7.1 and CD40. […]

Compound | level of fluorescence after staining with either monoclonal antibody (biotinylated mAb) | fluorescence of P815 cells relative to cells pre-incubated with DMPC (Control) (biotinylated anti-B7.1 or anti-CD40 mAb)
CCCCCCCCCCCCCC(=O)OC[C@H](COP(=O)([O-])OCC[N+](C)(C)C)OC(=O)CCCCCCCCCCCCC [DMPC, di-myristoyl-phosphatidylcholine] | low level of fluorescence | –
CCCCCCCCCCCCCCN(CCCCCCCCCCCCCC)C(=O)CCC(=O)NCCCC[C@@H](C(=O)O)N(CC(=O)O)CC(=O)O [NTA-DTDA, N^α,N^αbis[carboxymethyl]-N^ε[(DTDA)suc]-L lysine] | – | 10-100 fold

Source: US20100143456A1, “MODEL MEMBRANE SYSTEMS” (priority 1999, published 2010)
